Assay: xn = mol fraction of the nth substance listed
Conditions: 101 kPa, Liquid; for viscosity: Capillary tube (Ostwald / Ubbelohde) method; for speed of sound: Sing-around technique in a fixed-path interferometer

CC(C)CCCC(C)CCCC(C)CCCCC(C)CCCC(C)CCCC(C)C (stereo not given) [2,6,10,15,19,23-hexamethyltetracosane] + CCCCO
Conditions	speed of sound, 298.15 K [m/s]	speed of sound, 303.15 K [m/s]	speed of sound, 308.15 K [m/s]	viscosity, 298.15 K [mPa·s]	viscosity, 303.15 K [mPa·s]	viscosity, 308.15 K [mPa·s]
x2 = 0	1381.9	1364.1	1346.5	28.26	22.09	17.77
x2 = 0.0451	1379.5	1361.7	1343	26.66	20.88	16.81
x2 = 0.1077	1376.1	1358.3	1340.2	24.69	19.42	15.62
x2 = 0.1346	1374.8	1356.5	1338.9	23.92	18.86	15.16
x2 = 0.1888	1371.7	1353.8	1335.9	22.48	17.78	14.29
x2 = 0.2231	1369.7	1351.8	1333.9	21.62	17.14	13.79
x2 = 0.3059	1365.1	1347.1	1329.3	19.67	15.64	12.62
x2 = 0.4052	1358.8	1340.8	1322.8	17.39	13.9	11.38
x2 = 0.5039	1350.9	1332.6	1314.8	15.11	12.14	9.903
x2 = 0.6118	1340.5	1322.5	1304.6	12.47	10.12	8.307
x2 = 0.7056	1328.8	1310.9	1293.1	10.06	8.276	6.824
x2 = 0.7998	1312.5	1294.8	1277.1	7.573	6.348	5.267
x2 = 0.8546	1299.5	1281.8	1264.2	6.128	5.2	4.344
x2 = 0.9035	1284.3	1266.8	1249.1	4.873	4.186	3.527
x2 = 0.9669	1258.5	1241.4	1224.4	3.325	2.912	2.497

mass density [kg/m3], Vibrating tube method
Conditions	298.15 K	303.15 K	308.15 K
x2 = 0	805.122	801.912	798.709
x2 = 0.0451	804.881	801.658	798.397
x2 = 0.1077	804.649	801.402	798.084
x2 = 0.1346	804.573	801.318	797.991
x2 = 0.1888	804.447	801.16	797.826
x2 = 0.2231	804.377	801.07	797.731
x2 = 0.3059	804.273	800.898	797.543
x2 = 0.4052	804.097	800.714	797.32
x2 = 0.5039	803.949	800.528	797.098
x2 = 0.6118	803.817	800.347	796.857
x2 = 0.7056	803.732	800.179	796.621
x2 = 0.7998	803.836	800.194	796.558
x2 = 0.8546	803.989	800.335	796.66
x2 = 0.9035	804.336	800.708	796.979
x2 = 0.9669	805.126	801.896	798.06

CCCCCCCCCCCCCCCC [hexadecane] + CCCCO
Conditions	mass density, 298.15 K [kg/m3]	mass density, 303.15 K [kg/m3]	mass density, 308.15 K [kg/m3]	speed of sound, 298.15 K [m/s]	speed of sound, 303.15 K [m/s]	speed of sound, 308.15 K [m/s]	viscosity, 298.15 K [mPa·s]	viscosity, 303.15 K [mPa·s]	viscosity, 308.15 K [mPa·s]
x2 = 0	770.456	766.981	763.52	1338.6	1320	1301.7	3.041	2.706	2.409
x2 = 0.0899	770.953	767.402	763.863	1332.4	1313.4	1294.9	2.957	2.6	2.302
x2 = 0.1048	771.053	767.499	763.961	1331.2	1312.2	1293.8	2.937	2.582	2.287
x2 = 0.1516	771.517	767.916	764.36	1328.2	1309.2	1290.3	2.899	2.546	2.254
x2 = 0.2017	772.074	768.482	764.874	1324.9	1305.8	1287.3	2.846	2.515	2.223
x2 = 0.2494	772.705	769.093	765.462	1321.9	1302.9	1284.4	2.811	2.478	2.189
x2 = 0.3382	774.083	770.439	766.796	1315.8	1296.9	1278.2	2.753	2.432	2.146
x2 = 0.4147	775.524	771.883	768.201	1310.6	1291.6	1273.1	2.704	2.394	2.112
x2 = 0.5057	777.651	773.952	770.24	1303.9	1285.5	1266.9	2.665	2.344	2.068
x2 = 0.5845	779.95	776.223	772.472	1297.6	1279.2	1260.9	2.635	2.306	2.029
x2 = 0.698	784.249	780.452	776.653	1287.4	1269.2	1251.1	2.594	2.256	1.99
x2 = 0.7945	789.246	785.434	781.597	1276.8	1258.5	1240.6	2.568	2.223	1.96
x2 = 0.8497	792.847	789.093	785.172	1269.5	1251.4	1233.7	2.558	2.218	1.953
x2 = 0.8963	796.346	792.717	788.76	1262.7	1244.8	1227.4	2.551	2.219	1.948
x2 = 0.953	801.232	797.973	794.054	1252.3	1235.8	1218.5	2.556	2.228	1.953
